# What was measured:
# AuroraA-TPX2 = target: T1, AuroraA-TPX2 (Homo sapiens, UniProt O14965); test: AuroraA-TPX2 Homogeneous Time Resolved Fluorescent (HTRF) kinase assay; assay type: biochemical; details: average; read-out: AurA_IC50_IP (uM Avg)
# T1 construct: 20 μL of AuroraA-TPX2 KD GST for a final volume of about 41 μL; GST
# T1 sequence (O14965 133-383 limits assumed): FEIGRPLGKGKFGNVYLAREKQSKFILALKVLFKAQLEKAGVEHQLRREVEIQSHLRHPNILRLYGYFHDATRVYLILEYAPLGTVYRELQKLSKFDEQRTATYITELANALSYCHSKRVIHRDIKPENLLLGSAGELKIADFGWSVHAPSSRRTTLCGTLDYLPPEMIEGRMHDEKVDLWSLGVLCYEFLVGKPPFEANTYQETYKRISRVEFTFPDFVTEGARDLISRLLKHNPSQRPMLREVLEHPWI
# T1 sequence (Q9ULW0 1-43 partner limits assumed): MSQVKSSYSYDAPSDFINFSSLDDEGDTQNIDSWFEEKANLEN
# Procedure, shortened: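 HTRF read-out (Eu 615 nm to APC 655 nm) of phosphorylated biotin-PLK, detected with 0.02 nM europium anti-phosphoPLK antibody and 0.0005 mg/mL SA-APC after overnight equilibration.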
# AuroraB = target: T2, AuroraB (Homo sapiens, UniProt Q96GD4); test: AuroraB Homogeneous Time Resolved Fluorescent (HTRF) kinase assay; assay type: biochemical; details: average; read-out: AurB_IC50_IP (uM Avg)
# T2 construct: 20 μL of AuroraB FL H is for a final volume of 41 μL; His
# Procedure, shortened: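 Full-length His-tagged kinase phosphorylates biotinylated Histone H3 (0.1 μM final) with ATP in pH 7.5 HEPES containing MgCl, MnCl, DTT and BSA for about 90 min. EDTA-containing detection mix with SA-APC and Eu-anti-phosphoHistone H3 then equilibrated about 60 min; HTRF read with 320 nm excitation, emissions 615/655 nm.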
# T2 sequence (Q96GD4 whole entry): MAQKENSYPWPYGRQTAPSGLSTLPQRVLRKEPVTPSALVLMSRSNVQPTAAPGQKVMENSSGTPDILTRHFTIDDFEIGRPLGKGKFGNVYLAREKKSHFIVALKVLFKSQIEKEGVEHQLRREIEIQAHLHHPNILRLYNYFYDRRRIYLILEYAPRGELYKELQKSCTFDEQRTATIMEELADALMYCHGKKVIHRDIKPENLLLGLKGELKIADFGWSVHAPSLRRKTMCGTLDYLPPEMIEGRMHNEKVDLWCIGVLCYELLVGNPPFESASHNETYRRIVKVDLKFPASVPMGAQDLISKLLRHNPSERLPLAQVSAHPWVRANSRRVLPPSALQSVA
IC50 (AuroraA-TPX2) [µM],IC50 (AuroraB) [µM],SMILES
2.03,0.074,COC1CCN(c2nnc(Nc3ccc(Oc4ccnc5ccoc45)cc3)c3ccccc23)CC1 [compound 478]
0.162,0.013,Cc1ccc(-c2nnc(Nc3ccc(Oc4ccnc5ccoc45)cc3)c3ccccc23)cc1N [compound 480]
0.415,0.004,Cc1ccc(-c2nnc(Nc3ccc(Sc4ccnc5ccoc45)cc3)c3ccccc23)nc1 [compound 482]
0.583,0.013,Clc1ccc(-c2nnc(Nc3ccc(Oc4ccnc5ccoc45)cc3)c3ccccc23)cc1 [compound 483]
0.141,0.018,Clc1ccc(-c2nnc(Nc3ccc(Sc4ccnc5cc(C6CC6)oc45)cc3)c3ccccc23)cc1 [compound 486]
1.29,0.015,Cc1cccc(-c2nnc(Nc3ccc(Sc4ccnc5ccoc45)cc3)c3ccccc23)n1 [compound 488]
0.09,0.019,N#Cc1cc2nccc(Sc3ccc(Nc4nnc(-c5ccc(Cl)cc5)c5ccccc45)cc3)c2o1 [compound 489]
0.02,0.002,Clc1ccc(-c2nnc(Nc3ccc(Sc4ccnc5cccnc45)cc3)c3ccccc23)nc1 [compound 493]
0.026,0.017,COc1cc2nccc(Sc3ccc(Nc4nnc(-c5cc(C)cs5)c5ccccc45)cc3)c2cn1 [compound 494]
0.277,0.363,Cc1csc(-c2nnc(Nc3ccc(Sc4ccnc5cc(OC(F)(F)F)ccc45)cc3)c3ccccc23)c1 [compound 499]
> 25,4.17,CN(c1ccc(Oc2ccnc3ccc(=O)[nH]c23)cc1)c1nnc(-c2ccc(Cl)cc2)c2ccccc12 [compound 500]
0.029,0.058,COc1cnc2c(Sc3ccc(Nc4nnc(-c5ccc6occc6c5)c5ccccc45)cc3)ccnc2c1 [compound 501]
0.027,0.009,COc1cnc2c(Sc3ccc(Nc4nnc(-c5ccc6cn(C)nc6c5)c5ccccc45)cc3)ccnc2c1 [compound 502]
0.02,0.007,COc1cnc2c(Sc3ccc(Nc4nnc(N5CCN(C)CC5)c5ccccc45)cc3)ccnc2c1 [compound 503]
0.017,0.032,COc1cnc2c(Sc3ccc(Nc4nnc(-c5ccc6nonc6c5)c5ccccc45)cc3)ccnc2c1 [compound 504]
0.152,0.042,COc1cnc2c(Sc3ccc(Nc4nnc(N5CCN(CC(F)F)CC5)c5ccccc45)cc3)ccnc2c1 [compound 507]
0.317,0.013,COc1ccc(-c2nnc(Nc3ccc(Sc4ccnc5cccnc45)cc3)c3ccccc23)cn1 [compound 509]
0.32,0.05,Cc1csc(-c2nnc(Nc3ccc(Oc4ccnc5cccnc45)cc3)c3cc(F)c(F)cc23)c1 [compound 510]
0.585,0.069,COc1cnc2c(Sc3ccc(Nc4nnc(OC(C)C)c5ccccc45)cc3)ccnc2c1 [compound 511]
0.501,0.12,CCOc1nnc(Nc2ccc(Sc3ccnc4cc(OC)cnc34)cc2)c2ccccc12 [compound 512]
0.189,0.01,COc1cnc2c(Sc3ccc(Nc4nnc(SC)c5ccccc45)cc3)ccnc2c1 [compound 514]
0.15,0.017,c1ccc2c(Sc3ccc(Nc4nnc(-c5ccc6c(c5)OCO6)c5ccccc45)cc3)ccnc2c1 [compound 517]
0.218,0.01,Clc1cccc(-c2nnc(Nc3ccc(Sc4ccnc5ccsc45)cc3)c3ccccc23)c1 [compound 518]
0.009,0.022,COc1cnc2c(Sc3ccc(Nc4nnc(-c5ccc6c(c5)OCO6)c5ccccc45)cc3F)ccnc2c1 [compound 522]
0.036,0.144,COc1cnc2c(Sc3ccc(Nc4nnc(N5CCC(C(F)(F)F)CC5)c5ccccc45)cc3)ccnc2c1 [compound 523]
0.093,0.099,CCCN(C)c1nnc(Nc2ccc(Sc3ccnc4cc(OC)cnc34)cc2)c2ccccc12 [compound 524]
0.036,0.138,COc1cnc2c(Sc3ccc(Nc4nnc(N5CCC(Cl)CC5)c5ccccc45)cc3)ccnc2c1 [compound 527]
0.064,0.293,COc1cnc2c(Sc3ccc(Nc4nnc(-c5cc(C)cs5)c5ccccc45)cc3F)ccnc2c1 [compound 528]
0.02,0.037,COc1cnc2c(Sc3ccc(Nc4nnc(-c5ccc(C)c(OC)c5)c5ccccc45)cc3)ccnc2c1 [compound 529]
0.061,0.019,COc1cnc2c(Sc3ccc(Nc4nnc(N5CCC[C@@H](OC)C5)c5ccccc45)cc3)ccnc2c1 [compound 532]

# Continued, molecule first:
SMILES,IC50 (AuroraA-TPX2) [µM],IC50 (AuroraB) [µM]
COCCOCCn1c(=O)ccc2nccc(Sc3ccc(Nc4nnc(-c5ccc(Cl)cc5)c5ccccc45)cc3)c21 [compound 476],0.746,0.293
COc1cnc2c(Sc3ccc(Nc4nnc(-c5ccc(C)c(N)c5)c5ccccc45)cc3)ccnc2c1 [compound 477],0.009,0.026
Cc1ccc(-c2nnc(Nc3ccc(Sc4ccnc5ccoc45)cc3)c3ccccc23)cc1N [compound 479],> 125,> 125
Cc1ccc(-c2nnc(Nc3ccc(Sc4ccnc5ccoc45)cc3)c3ccccc23)cn1 [compound 481],0.341,0.002
C[Si](C)(C)c1cc2nccc(Sc3ccc(Nc4nnc(Cl)c5ccccc45)cc3)c2o1 [compound 484],> 125,0.107
COc1ccc(-c2nnc(Nc3ccc(Sc4ccnc5ccoc45)cc3)c3ccccc23)cn1 [compound 485],0.479,0.005
Cc1ccc(-c2nnc(Nc3ccc(Sc4ccnc5cc(C#N)oc45)cc3)c3ccccc23)cc1N [compound 490],0.09,0.013
Cc1cc2nccc(Sc3ccc(Nc4nnc(-c5ccc(Cl)cc5)c5ccccc45)cc3)c2o1 [compound 491],0.15,0.039
Cc1cc2nccc(Sc3ccc(Nc4nnc(-c5ccc(C)c(N)c5)c5ccccc45)cc3)c2o1 [compound 492],0.142,0.046
COc1cnc2c(Sc3ccc(Nc4nnc(-c5ccccc5F)c5ccccc45)cc3)ccnc2c1 [compound 495],0.15,0.026
FC(F)(F)Oc1ccc2c(Oc3ccc(Nc4nnc(-c5ccccc5)c5ccccc45)cc3)ccnc2c1 [compound 496],1.04,0.374
FC(F)(F)Oc1ccc2c(Sc3ccc(Nc4nnc(-c5ccccc5)c5ccccc45)cc3)ccnc2c1 [compound 497],> 25,0.333
FC(F)(F)Oc1ccc2c(Oc3ccc(Nc4nnc(-c5ccc(Cl)cc5)c5ccccc45)cc3)ccnc2c1 [compound 498],0.183,0.165
CCOc1nc(-c2nnc(Nc3ccc(Sc4ccnc5cc(OC)cnc45)cc3)c3ccccc23)cs1 [compound 505],0.016,0.014
COc1cnc2c(Sc3ccc(Nc4nnc(-c5cscn5)c5ccccc45)cc3)ccnc2c1 [compound 506],0.748,0.089
COc1cnc2c(Sc3ccc(Nc4nnc(NCCCSC)c5ccccc45)cc3)ccnc2c1 [compound 508],0.082,0.009
COc1cnc2c(Sc3ccc(Nc4nnc(OCC(F)(F)F)c5ccccc45)cc3)ccnc2c1 [compound 513],0.231,0.03
COCCOc1nnc(Nc2ccc(Sc3ccnc4cc(OC)cnc34)cc2)c2ccccc12 [compound 515],0.072,0.012
COc1cnc2c(Sc3ccc(Nc4nnc(-c5cccc(Cl)c5)c5ccccc45)cc3)ccnc2c1 [compound 516],0.088,0.068
COc1cnc2c(Sc3ccc(Nc4nnc(-c5ccccc5)c5ccccc45)cc3F)ccnc2c1 [compound 519],0.083,0.053
COc1cnc2c(Sc3ccc(Nc4nnc(N5CCCC5)c5ccccc45)cc3)ccnc2c1 [compound 521],0.112,0.025
COc1cnc2c(Oc3ccc(Nc4nnc(-c5ccc(C)c(OC)c5)c5ccccc45)cc3)ccnc2c1 [compound 525],0.013,0.028
COc1cnc2c(Sc3ccc(Nc4nnc(-c5ccc6c(c5)OCO6)c5ccccc45)cc3)ccnc2c1 [compound 530],0.014,0.014
COc1cnc2c(Sc3ccc(Nc4nnc(N5CCC(F)(F)CC5)c5ccccc45)cc3)ccnc2c1 [compound 531],0.089,0.024
COCCNc1nnc(Nc2ccc(Sc3ccnc4cc(OC)cnc34)cc2)c2ccccc12 [compound 533],0.045,0.03
COC1CCN(c2nnc(Nc3ccc(Sc4ccnc5cc(C#N)ccc45)cc3)c3ccccc23)CC1 [compound 534],0.035,0.02
COCCCNc1nnc(Nc2ccc(Sc3ccnc4cc(OC)cnc34)cc2)c2ccccc12 [compound 535],0.022,0.02

# — US8557816B2, “Aurora kinase modulators and method of use” (Amgen Inc., priority 2007, dated 2013)
